From PubChem BioAssay AID1648 (Sanford-Burnham Center for Chemical Genomics, 2009)
The source made the active and inactive calls. The rule behind the calls is not given here.

Molecular target: Serine/threonine-protein kinase mTOR (Homo sapiens) (UniProt P42345)
Experiment: binders of mTOR FRB domain, biophysical, NMR (AID 1648)
Conditions: NMR binding to FRB domain, chemical shift

Sequence of Serine/threonine-protein kinase mTOR (Homo sapiens) (P42345 2015-2114): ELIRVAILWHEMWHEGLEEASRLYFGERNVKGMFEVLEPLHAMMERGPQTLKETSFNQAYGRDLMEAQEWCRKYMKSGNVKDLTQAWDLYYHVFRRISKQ

Structure (SMILES) | Kd
COc1ccc2c(c1)OC/C(=C/c1ccc(OC)c(OC)c1)C2=O | > 4 mM (inactive)
C=C1C2CC[C@@]3(C)[C@H](c4ccoc4)OC(=O)C[C@]13O[C@H]1CC(=O)C(C)(C)C(CC(=O)OC)C21C (stereo partly specified) | > 4 mM (inactive)
CN1CCN(c2ccc(C(=O)O)cc2)CC1 | > 4 mM (inactive)
O=C(Nc1ccccc1)NC1CCS(=O)(=O)C1 (stereo unspecified) | > 4 mM (inactive)
O=C(NCc1ccccc1Cl)c1cnn2cccnc12 | > 4 mM (inactive)
C=C(C)[C@@H]1CC[C@]2(CO)CC[C@]3(C)[C@H](CCC4[C@@]5(C)CC[C@H](O)C(C)(C)C5CC[C@]43C)C12 (stereo partly specified) | > 4 mM (inactive)
Cn1cnc2c(Cl)ncnc21 | > 4 mM (inactive)
CCn1c(C)c(C(C)=O)c(N2CCOCC2)nc1=S | > 4 mM (inactive)
O=C(c1ccccc1F)N1CCN(c2ccccc2)CC1 | > 4 mM (inactive)
CCOC(=O)c1c(C)cc(O)c(C=O)c1O | > 4 mM (inactive)
O=C(Cn1cncn1)c1ccc(F)c(F)c1 | > 4 mM (inactive)
Cc1cc(NC(=O)CSc2nncn2C)no1 | > 4 mM (inactive)
COc1ccc(-c2c(O)c3c(OC)c4c(cc3oc2=O)OC(C)(C)CC4)cc1 | > 4 mM (inactive)
CCOC(=O)CNc1ncnc2c1nnn2CC | > 4 mM (inactive)
CCCCCCCCCCCCCc1ccco1 | > 4 mM (inactive)
O=C(c1cc(-c2ccccc2)on1)N1CCCC1 | > 4 mM (inactive)
COc1ccc(Cc2nnc3c4cnn(C)c4ncn23)cc1 | > 4 mM (inactive)
COc1ccc2c(c1)c1n[nH]c(=S)nc1n2C | > 4 mM (inactive)
CC(CCC(=O)O)[C@H]1CCC2C3CC[C@@H]4C[C@H](O)CC[C@]4(C)C3C[C@H](O)[C@@]21C (stereo partly specified) | > 4 mM (inactive)
c1ccc2[nH]c(CCn3cncn3)nc2c1 | > 4 mM (inactive)
c1cc2c(cc1[C@H]1OC[C@H]3[C@@H]1CO[C@H]3c1ccc3c(c1)OCO3)OCO2 | > 4 mM (inactive)
O=C(O)CCn1cncn1 | > 4 mM (inactive)
Cc1ccc(C(=O)N2CCC(C(N)=O)CC2)cc1C | > 4 mM (inactive)
Clc1ccccc1OCCn1ccnc1 | > 4 mM (inactive)
CN1CCC(NC(=O)c2c(F)cccc2Cl)CC1 | > 4 mM (inactive)

Structure (SMILES) | Kd
Cn1nccc1N | > 4 mM (inactive)
CC(C)C(=O)NC(=S)N1CCOCC1 | > 4 mM (inactive)
Nc1nc(-c2ccccc2)ns1 | > 4 mM (inactive)
O=C(O)CN1C(=O)c2cccc([N+](=O)[O-])c2C1=O | > 4 mM (inactive)
Cc1cc(N)n(C2CCOC(C)(C)C2)n1 (stereo unspecified) | > 4 mM (inactive)
CCc1noc(C)c1C(=O)Nc1ncc(C)s1 | > 4 mM (inactive)
N#Cc1c[nH]n2c(=O)cc(Cc3ccccc3)nc12 | > 4 mM (inactive)
O=C(c1ccco1)N1C(=O)c2cccc3cccc1c23 | > 4 mM (inactive)
O=C(c1ccc(N2CCNCC2)cc1)c1cccnc1 | > 4 mM (inactive)
COc1ccc2c(c1O)-c1c(OC)c(OC)cc3c1[C@H](C2)N(C)CC3 | > 4 mM (inactive)
O=C1CCC(=O)N1c1nc2ccccc2s1 | > 4 mM (inactive)
O=c1c[n+]([O-])c2ccccc2n1OCc1ccccn1 | > 4 mM (inactive)
CC(=O)O[C@@H]1CC2C(C)(C)C=CC(=O)[C@]2(C)C2CC[C@@]3(C)[C@H](c4ccoc4)OC(=O)C4OC43[C@@]21C (stereo partly specified) | > 4 mM (inactive)
Cc1ccc(N2C(=O)CC(=O)NC2=O)cc1 | > 4 mM (inactive)
CN1C2CCC1CC(OC(=O)C(CO)c1ccccc1)C2 (stereo unspecified) | > 4 mM (inactive)
CC(=O)OC1CCC23CC1(C)CCC2C(C)(C)CC3OC(C)=O (stereo unspecified) | > 4 mM (inactive)
COc1c(O)cc(O)cc1O | > 4 mM (inactive)
O=C(O)CC12CC3CC(CC(O)(C3)C1)C2 | > 4 mM (inactive)
S=C(c1ccc(N2CCOCC2)cc1)N1CCOCC1 | > 4 mM (inactive)
CCCSc1nnc2[nH]c(=O)cc(N)n12 | > 4 mM (inactive)
S=C(NCc1ccco1)NN1CCOCC1 | > 4 mM (inactive)
NC(=O)C1CCN(C(=O)c2ccccc2)CC1 | > 4 mM (inactive)
COC(=O)c1ccc2nsnc2c1 | > 4 mM (inactive)
CC1(C)NC(=O)N(CCOc2ccc3c(c2)CCC3)C1=O | > 4 mM (inactive)
O=C(O)c1csc(-c2cccs2)n1 | > 4 mM (inactive)

Structure (SMILES) | Kd
CCc1ccc(C(=O)N2CCCC2)s1 | > 4 mM (inactive)
COc1c2ccoc2nc2c(OC)c(OCC(O)C(C)(C)O)ccc12 (stereo unspecified) | > 4 mM (inactive)
O=C1CSC(=Nc2ccc(C(=O)O)cc2)N1 | > 4 mM (inactive)
OC1CCN(Cc2ccc[nH]2)CC1 | > 4 mM (inactive)
O=C(O)Cc1noc2ccccc12 | > 4 mM (inactive)
Cc1cc(C)cc(C(=O)n2cnnc2N)c1 | > 4 mM (inactive)
O=C(O)CCN1CCc2ccccc2C1c1ccncc1 (stereo unspecified) | > 4 mM (inactive)
Cc1cc(NC(=O)c2cnn3cccnc23)no1 | > 4 mM (inactive)
O=C(O)c1ccc2nsnc2c1 | > 4 mM (inactive)
c1ccc(Cc2nnc3sc(-c4ccncc4)nn23)cc1 | > 4 mM (inactive)
CNc1ccccc1C(=O)O | > 4 mM (inactive)
Fc1cc2nccnc2cc1N1CCSCC1 | > 4 mM (inactive)
O=C(Cc1cccs1)Nc1ccccn1 | > 4 mM (inactive)
O=C1CCC(=O)N1c1cccnc1 | > 4 mM (inactive)
N#CCCn1ccnc1-c1ccccc1 | > 4 mM (inactive)
COc1ccc(O)c(-c2cn[nH]c2-c2cccs2)c1 | > 4 mM (inactive)
Nc1ncnc2nc(SCCN3CCCCC3)[nH]c12 | > 4 mM (inactive)
NC(=O)C1CCN(C(=S)Nc2ccccc2)CC1 | > 4 mM (inactive)
CC(=O)c1ccc(NC(=O)c2ocnc2C)cc1 | > 4 mM (inactive)
CNC(=O)C1=NCCCc2cc(OC)c(OC)cc21 | > 4 mM (inactive)
C/C=C(/C)C(=O)O[C@@H]1Cc2c(ccc3ccc(=O)oc23)OC1(C)C | > 4 mM (inactive)
CC(=O)Nc1ccc(S(=O)(=O)N2CCN=C2C)cc1 | > 4 mM (inactive)
COc1ccc(Cl)cc1-c1nc(-c2ccncc2)no1 | > 4 mM (inactive)
COc1cccc(/C=N/N=C2/NC(=O)CS2)c1 | > 4 mM (inactive)
COc1ccc(-c2cc(=O)c3ccccc3o2)cc1 | > 4 mM (inactive)

Structure (SMILES) | Kd
O=C(c1ccccc1)c1ccccc1C(=O)N1CCOCC1 | > 4 mM (inactive)
CC(=O)c1ccc(NS(=O)(=O)c2cccc(C)c2)cc1 | > 4 mM (inactive)
Cc1cc(Cl)ccc1NC(=O)C(N)=O | > 4 mM (inactive)
CC(CCC(=O)O)[C@H]1CCC2C3CC[C@@H]4C[C@H](O)CC[C@]4(C)C3CC[C@@]21C (stereo partly specified) | > 4 mM (inactive)
C/C(N)=C/C(=O)N1CCCCC1 | > 4 mM (inactive)
CNC(=S)N1CCN=C1Nc1nc(C)cc(C)n1 | > 4 mM (inactive)
Cc1nnc(NCc2ccc3c(c2)OCO3)[nH]c1=O | > 4 mM (inactive)
CC(C)(C)c1ccc(SCC(N)=O)cc1 | > 4 mM (inactive)
COc1cccc(/C=C/C(=O)O)c1C(C)C | > 4 mM (inactive)
NS(=O)(=O)c1ccc(NC(=O)/C=C\C(=O)O)cc1 | > 4 mM (inactive)
CC(=O)CS(=O)(=O)c1ccccc1 | > 4 mM (inactive)
Cn1cnc2c1c(=O)[nH]c(=O)n2C | > 4 mM (inactive)
COc1cc(O)cc(/C=C/c2ccccc2)c1 | > 4 mM (inactive)
NC(=O)C1CCN(c2ccc(Cl)nn2)CC1 | > 4 mM (inactive)
O=C(O)C1CC(=O)N(C2Cc3ccccc3C2)C1 (stereo unspecified) | > 4 mM (inactive)
O=C(Oc1ccc(-c2nnco2)cc1)N1CCOCC1 | > 4 mM (inactive)
c1ccc2[nH]c(-c3cscn3)nc2c1 | > 4 mM (inactive)
CC1=CCc2c(cc3oc(C)cc(=O)c3c2O)OC1 | > 4 mM (inactive)
CCOC(=O)Nc1ccc2c(C)cc(=O)oc2c1 | > 4 mM (inactive)
O=c1c(O)c(-c2ccccc2)oc2cc(O)ccc12 | > 4 mM (inactive)
Cc1ccc2[nH]c3nc(=S)[nH]nc3c2c1 | > 4 mM (inactive)
CC(C)c1c(O)c(-c2cc3c(c(C(C)C)c2O)CCC2C(C)(C)CCC[C@]32C)cc2c1CCC1C(C)(C)CCC[C@]21C (stereo partly specified) | > 4 mM (inactive)
O=C(O)c1ccc(-c2cccs2)cc1 | > 4 mM (inactive)
O=C1NCCCC1C(=O)N/N=C/c1ccccc1 (stereo unspecified) | > 4 mM (inactive)
NC(=O)N1CCc2ccccc21 | > 4 mM (inactive)

Structure (SMILES) | Kd
O=c1[nH]cc(Nc2ccccc2)c(=O)[nH]1 | > 4 mM (inactive)
NS(=O)(=O)c1ccc(N=Cc2ccc[nH]2)cc1 | > 4 mM (inactive)
CCOc1cc(S(=O)(=O)n2nc(C)cc2C)ccc1F | > 4 mM (inactive)
O=C1NC(=O)C(C(=S)Nc2ccccc2)C(=O)N1 | > 4 mM (inactive)
CS(=O)(=O)N1CCN(C(=O)c2ccccc2)C1 | > 4 mM (inactive)
COC(=O)Cn1c2ccccc2c2nc(C)sc21 | > 4 mM (inactive)
Cc1ccc(C)n1-c1ccc(C(=O)N2CCOCC2)cc1 | > 4 mM (inactive)
NC(N)=NOCC[C@H](N)C(=O)O | > 4 mM (inactive)
c1ccc2[nH]c(NCCN3CCOCC3)nc2c1 | > 4 mM (inactive)
CC(C)Nc1ncnc2c1nnn2C | > 4 mM (inactive)
O=C(NCCCO)c1ccncc1 | > 4 mM (inactive)
O=S1(=O)CCC(Nc2ccccc2)C1 (stereo unspecified) | > 4 mM (inactive)
COc1ccc(NC2=NCC(C)S2)cc1 (stereo unspecified) | > 4 mM (inactive)
Cc1cc(O)c(C=O)c(O)c1C(=O)O | > 4 mM (inactive)
CNC(C)[C@H](O)c1ccccc1 (stereo partly specified) | > 4 mM (inactive)
CN1CCC[C@H]1c1cccnc1 | > 4 mM (inactive)
Cc1cc(SCCF)n2ncnc2n1 | > 4 mM (inactive)
CCNC(=O)CC[C@H](N)C(=O)O | > 4 mM (inactive)
Nc1csc(C(=O)O)c1 | > 4 mM (inactive)
COc1ccc([C@H]2COc3c(ccc(O)c3OC)C2)c(OC)c1O | > 4 mM (inactive)
O=C(NCC1CCNCC1)c1ccncc1 | > 4 mM (inactive)
